Source: patent US20240228489A1, “POSITIVE ALLOSTERIC MODULATORS OF THE MUSCARINIC ACETYLCHOLINE RECEPTOR M1” (Vanderbilt University, priority 2021, published 2024)

What was measured:
human mAChR M1 [1] = biological target: T1, human mAChR M1 (Homo sapiens, UniProt P11229); experiment: mAChR M1 cell-based functional assay (calcium mobilization), PAM mode: increase in the EC20 acetylcholine response
T1 sequence (P11229 1-460): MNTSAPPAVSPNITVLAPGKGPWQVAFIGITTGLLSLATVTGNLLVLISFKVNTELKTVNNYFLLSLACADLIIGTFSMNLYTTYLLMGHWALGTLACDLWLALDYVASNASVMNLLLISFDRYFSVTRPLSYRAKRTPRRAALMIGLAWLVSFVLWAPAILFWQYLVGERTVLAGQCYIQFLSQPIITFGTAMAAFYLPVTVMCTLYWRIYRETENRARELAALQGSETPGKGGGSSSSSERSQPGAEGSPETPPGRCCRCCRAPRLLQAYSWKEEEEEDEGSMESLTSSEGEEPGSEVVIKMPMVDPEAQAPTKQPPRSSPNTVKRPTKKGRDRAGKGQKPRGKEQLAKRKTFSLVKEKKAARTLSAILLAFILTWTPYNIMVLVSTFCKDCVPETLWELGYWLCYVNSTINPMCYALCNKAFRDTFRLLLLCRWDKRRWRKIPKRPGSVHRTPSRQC
How it was run: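 CHO-K1 cells stably expressing hM1, Fluo-4 loaded, read by FDSS calcium flux at 1 Hz. Compound (11-point 1:3 CRC) added at 4 s, EC20 acetylcholine at 144 s, EC80 at 230 s. PAM activity taken as concentration-dependent increase in EC20 ACh response, fitted by four-parameter logistic for EC50/Emax.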

human mAChR M1 [2] = biological target: T1, human mAChR M1; experiment: mAChR M1 cell-based functional assay (calcium mobilization), agonist mode: compound alone, Emax relative to acetylcholine maximum; details: for Agonist Activity Human M1 EC50 / EC50: human mAChR M1; for Emax: relative to the maximum for acetylcholine
How it was run: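 CHO-K1 cells stably expressing hM1 were loaded with Fluo-4 AM, and calcium flux was read as fluorescence ratio. Compound was added alone from an 11-point 1:3 curve, and the agonist response was fitted with a four-parameter logistic. Emax is expressed relative to the acetylcholine maximum.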

EC50 (human mAChR M1 [1]) [µM]	Emax (human mAChR M1 [1]) [%]	Agonist Activity Human M1 EC50 (human mAChR M1 [2])	Emax (human mAChR M1 [2]) [%]	EC50 (human mAChR M1 [2]) [µM]	Structure (SMILES)
0.9	76	Inactive	5	–	[2H]C1([2H])c2ncccc2C(=O)N1Cc1ccc(-c2ccc(F)c3nn(C([2H])([2H])[2H])cc23)cc1C [Compound 47, 6-(4-(7-fluoro-2-(methyl-d3)-2H-indazol-4-yl)-2-methylbenzyl)-6,7-dihydro-5H-pyrrolo[3,4-b]pyridin-5-one-7,7-d2]
2.82	66	Inactive	2	–	[2H]C1([2H])c2ncccc2C(=O)N1Cc1ccc(-c2cncc3nn(C)cc23)cc1F [Compound 120, 6-(2-fluoro-4-(2-methyl-2H-pyrazolo[3,4-c]pyridin-4-yl)benzyl)-6,7-dihydro-5H-pyrrolo[3,4-b]pyridin-5-one-7,7-d2]
0.14	88	–	59	1.2	[2H]C1([2H])c2ncccc2C(=O)N1Cc1c(F)cc(-c2ccnc3nn(C)cc23)cc1C1CC1 [Compound 208, 6-(2-cyclopropyl-6-fluoro-4-(2-methyl-2H-pyrazolo[3,4-b]pyridin-4-yl)benzyl)-6,7-dihydro-5H-pyrrolo[3,4-b]pyridin-5-one-7,7-d2]
0.233	66	Inactive	1	–	[2H]C1([2H])c2ncccc2C(=O)N1Cc1c(F)cc(-c2ccc(Cl)c3nn(C)cc23)cc1F [Compound 40, 6-(4-(7-chloro-2-methyl-2H-indazol-4-yl)-2,6-difluorobenzyl)-6,7-dihydro-5H-pyrrolo[3,4-b]pyridin-5-one-7,7-d2]
0.371	81	–	13	> 10	[2H]C1([2H])c2ncccc2C(=O)N1Cc1c(F)cc(-c2cccc3nn(CC)cc23)cc1F [Compound 42, 6-(4-(2-ethyl-2H-indazol-4-yl)-2,6-difluorobenzyl)-6,7-dihydro-5H-pyrrolo[3,4-b]pyridin-5-one-7,7-d2]
0.392	72	–	2	> 10	[2H]C1([2H])c2ncccc2C(=O)N1Cc1ccc(-c2ccc3nn(C)cc3c2)cc1C [Compound 33, 6-(2-methyl-4-(2-methyl-2H-indazol-5-yl)benzyl)-6,7-dihydro-5H-pyrrolo[3,4-b]pyridin-5-one-7,7-d2]
0.952	53	Inactive	4	–	[2H]C1([2H])c2ncccc2C(=O)N1Cc1c(F)cc(-c2cc(F)c3nn(C)cc3c2)cc1F [Compound 7, 6-(2,6-difluoro-4-(7-fluoro-2-methyl-2H-indazol-5-yl)benzyl)-6,7-dihydro-5H-pyrrolo[3,4-b]pyridin-5-one-7,7-d2]
2.69	82	Inactive	2	–	[2H]C1([2H])c2ncccc2C(=O)N1Cc1c(F)cc(-c2cccc3nn(C)cc23)cc1N1CCC1 [Compound 221, 6-(2-(azetidin-1-yl)-6-fluoro-4-(2-methyl-2H-indazol-4-yl)benzyl)-6,7-dihydro-5H-pyrrolo[3,4-b]pyridin-5-one-7,7-d2]
0.486	65	–	21	8.4	[2H]C1([2H])c2ncccc2C(=O)N1Cc1c(F)cc(-c2ccc(OC3CCOC3)c3nn(C)cc23)cc1F (stereo not drawn) [Compound 127, 6-(2,6-difluoro-4-(2-methyl-7-((tetrahydrofuran-3-yl)oxy)-2H-indazol-4-yl)benzyl)-6,7-dihydro-5H-pyrrolo[3,4-b]pyridin-5-one-7,7-d2]
2.19	68	Inactive	2	–	[2H]C1([2H])c2ncccc2C(=O)N1Cc1c(F)cc(-c2ccc(OC)c3c2cnn3C([2H])([2H])[2H])cc1F [Compound 69, 6-(2,6-difluoro-4-(7-methoxy-1-(methyl-d3)-1H-indazol-4-yl)benzyl)-6,7-dihydro-5H-pyrrolo[3,4-b]pyridin-5-one-7,7-d2]
0.201	82	–	27	6.12	[2H]C1([2H])c2ncccc2C(=O)N1Cc1c(C)cc(-c2ccc(OCCOC)c3nn(C)cc23)cc1F [Compound 177, 6-(2-fluoro-4-(7-(2-methoxyethoxy)-2-methyl-2H-indazol-4-yl)-6-methylbenzyl)-6,7-dihydro-5H-pyrrolo[3,4-b]pyridin-5-one-7,7-d2]
0.535	80	–	28	6.24	[2H]C1([2H])c2ncccc2C(=O)N1Cc1ccc(-c2ccc(C)c3nn(C)cc23)cc1F [Compound 28, 6-(4-(2,7-dimethyl-2H-indazol-4-yl)-2-fluorobenzyl)-6,7-dihydro-5H-pyrrolo[3,4-b]pyridin-5-one-7,7-d2]
0.629	72	Inactive	3	–	[2H]C1([2H])c2ncccc2C(=O)N1Cc1c(F)cc(-c2ccc(OC3CN(C4CCCCC4)C3)c3nn(C)cc23)cc1F [Compound 189, 6-(4-(7-((1-cyclohexylazetidin-3-yl)oxy)-2-methyl-2H-indazol-4-yl)-2,6-difluorobenzyl)-6,7-dihydro-5H-pyrrolo[3,4-b]pyridin-5-one-7,7-d2]
0.823	71	Inactive	2	–	[2H]C1([2H])c2ncccc2C(=O)N1Cc1c(F)cc(-c2cccc3c2cnn3C([2H])([2H])[2H])cc1F [Compound 67, 6-(2,6-difluoro-4-(1-(methyl-d3)-1H-indazol-4-yl)benzyl)-6,7-dihydro-5H-pyrrolo[3,4-b]pyridin-5-one-7,7-d2]
0.297	85	Inactive	9	–	[2H]C1([2H])c2ncccc2C(=O)N1Cc1c(F)cc(-c2ccc(OC3CN(C(C)C)C3)c3nn(C)cc23)cc1F [Compound 180, 6-(2,6-difluoro-4-(7-((1-isopropylazetidin-3-yl)oxy)-2-methyl-2H-indazol-4-yl)benzyl)-6,7-dihydro-5H-pyrrolo[3,4-b]pyridin-5-one-7,7-d2]
5.24	59	Inactive	1	–	[2H]C1([2H])c2ncccc2C(=O)N1Cc1c(F)cc(-c2cccc3nn(C)cc23)cc1C1CCCC1 [Compound 223, 6-(2-cyclopentyl-6-fluoro-4-(2-methyl-2H-indazol-4-yl)benzyl)-6,7-dihydro-5H-pyrrolo[3,4-b]pyridin-5-one-7,7-d2]

Structure (SMILES)	EC50 (human mAChR M1 [1]) [µM]	Emax (human mAChR M1 [1]) [%]	Agonist Activity Human M1 EC50 (human mAChR M1 [2])	Emax (human mAChR M1 [2]) [%]	EC50 (human mAChR M1 [2]) [µM]
[2H]C1([2H])c2ncccc2C(=O)N1Cc1c(F)cc(-c2ccc3nn(C)cc3c2)cc1OCC(C)C [Compound 211, 6-(2-fluoro-6-isobutoxy-4-(2-methyl-2H-indazol-5-yl)benzyl)-6,7-dihydro-5H-pyrrolo[3,4-b]pyridin-5-one-7,7-d2]	1.29	88	Inactive	3	–
[2H]C1([2H])c2ncccc2C(=O)N1Cc1c(F)cc(-c2ccc(F)c3nn(C)cc23)cc1OCC(C)C [Compound 214, 6-(2-fluoro-4-(7-fluoro-2-methyl-2H-indazol-4-yl)-6-isobutoxybenzyl)-6,7-dihydro-5H-pyrrolo[3,4-b]pyridin-5-one-7,7-d2]	1.29	79	Inactive	2	–
